Measured values as given in patent publication US20260062422A1 (Halda Therapeutics OpCo, Inc., priority 2022, published 2026).

Key:
Assay type in all cases: cell-based
[1] = Cellular growth inhibition, T-Rex 293 SC cells with doxycycline (progesterone receptor isoform B induced), Example 47; conditions: progesterone receptor isoform B induced with 10 ng/mL doxycycline, 72 hours, CellTiter-Glo 2.0, Table 14 (Example 47)
Description: (§1) The following types of cells were prepared for this experiment: (i) a T-Rex 293 cell line having increased expression of progesterone receptor isoform B protein due to exposure to doxycycline and (ii) a T-Rex 293 cell line lacking increased expression of progesterone receptor isoform B protein. Ability of the test compounds to inhibit proliferation of the foregoing cell types was evaluated according to the procedures set forth below.
(§2) The doxycycline-inducible progesterone receptor isoform B protein expressing cell line was established using the following protocol: T-Rex 293 cells were purchased from Invitrogen (Cat #R71007) and transfected using Lipofectamine 2000 with the wild-type progesterone receptor B protein sequence cloned into the pcDNA4/TO vector. Transfected cells were selected using 400 μg/mL Zeocin (Invitrogen Cat #R25001). Following selection, single clones were raised and maintained in Dulbecco's Modified Eagle Medium (DMEM) supplemented with 10% w/w Tetracycline-free fetal bovine serum (FBS) and 250 μg/mL Zeocin. Clones were analyzed for expression of progesterone receptor isoform B protein in the presence and absence of 10 ng/mL doxycycline (Sigma Cat #D9891), and a single doxycycline-inducible clone (hereinafter “SC”) was selected for use in downstream assays.
(§3) The SC cells were seeded on poly-D-lysine coated, black clear-bottom 384-well plates at 2500/well, in 25 μL Phenol Red Free Dulbecco's Modified Eagle Medium (DMEM) supplemented with 10% w/w charcoal-dextran treated fetal bovine serum (FBS) and 1% w/w pen-strep, with or without 10 ng/mL doxycycline. Pen-Strep is a commercially available mixture of penicillin G and streptomycin, which is used in mammalian cell culture media to prevent bacterial contamination. Phenol Red Free Dulbecco's Modified Eagle Medium (DMEM) supplemented with 10% w/w charcoal-dextran treated fetal bovine serum (FBS) and 1% w/w pen-strep, with or without 10 ng/mL doxycycline is herein referred to as Treatment Medium. Following seeding of cells in the plates, the plates were spun at 300×g for 30 seconds, then equilibrated to room temperature for 30 minutes, and then deposited in a humidified tissue culture incubator maintained at 37° C. with 5% CO2.
(§4) At 24 hours after seeding of the cells, dilutions of test compound were prepared in DMSO and dissolved in Treatment Medium, to achieve a final DMSO concentration of 0.5% w/w, thereby providing the Test Compound Solution. A 25 μL aliquot of the Test Compound Solution was added to cells in the well plates. An equal volume of a solution containing DMSO and Treatment Medium was used as a negative control. Following treatment of cells with Test Compound Solution or said equal volume of a solution containing DMSO and Treatment Medium, the plates were spun at 300×g for 30 seconds, and then left in an incubator for 72 hours.
(§5) At the end of the treatment duration, cell viability was quantified with CellTiter-Glo 2.0 reagent (Promega Cat #G9243). For this purpose, plates were equilibrated to room temperature for 30 minutes, and then 25 μL of CellTiter-Glo 2.0 reagent was added to cells in the plate wells. Plates were then agitated on a shaker for two minutes at 500 rpm and subsequently incubated at room temperature for 10 minutes. Following incubation, the plates were spun at 3000×g for 30 seconds, then sealed with an optical adhesive cover, and luminescence readings were measured with an EnVision Plate Reader (Perkin Elmer).
(§6) Data was normalized using zero luminescence for baseline. A four-parameter non-linear regression curve fit was applied to dose-response data in GraphPad Prism data analysis software to determine the half-maximal growth inhibitory concentration (GI50) for each test compound.

[2] = tested on: T-Rex 293 cell line SC cells having increased expression of progesterone receptor isoform B protein due to exposure to doxycycline; assay: as above; conditions: progesterone receptor isoform B induced with 10 ng/mL doxycycline, 72 hours, CellTiter-Glo 2.0, Table 14 (Example 47)
Description: as §1, §2, §3, §4, §5, §6

[3] = tested on: 22RV1 cells overexpressing FL-AR (22RV1 Parental(FL-AR^hi)); assay: 22RV1 apoptosis assay (Caspase-Glo 3/7), cells overexpressing FL-AR; conditions: Caspase 3/7 Glo assay
Description: (§7) 22RV1 Parental and 22RV1/AR cells were seeded in 25 μL growth media in poly-d lysine coated black clear-bottom 384-well plates at 5000 cells/well with Phenol Red Free RPMI containing 10% charcoal stripped serum and 1% PenStrep. Following seeding, plates were spun at 300×g for 30 seconds, then equilibrated to room temperature for 30 minutes, and moved into the incubator. 24 hours after seeding, compounds were titrated in 100% DMSO and diluted in growth medium. 25 μL of the compound/medium mixture was added to cells, bringing the total volume in each well to 50 μL. DMSO was used as a negative control.
After treatment, plates were spun at 300×g for 30 seconds, then cultured at 37° C. with 5% CO2 for 24 or 48 hours in a humidified tissue culture incubator. After 24 or 48 hours of treatment, Caspase 3/7 activity was quantified with Caspase-Glo 3/7 reagent (Promega). Plates were equilibrated to room temperature for 30 minutes, then 25 μL of Caspase-Glo 3/7 reagent was added to cells, bringing the total volume in each well to 75 μL. After reagent was added, plates were spun at 300×g for 30 seconds then mixed on a shaker for two minutes at 500 rpm and then incubated in the dark at room temperature for one hour. Following incubation, plates were spun at 300×g for 30 seconds, sealed with an optical adhesive cover, and luminescence reads were measured with an EnVision Plate Reader. […]

[4] = tested on: LnCaP95 Parental cells; assay: Cellular growth inhibition assay for LnCaP95 Parental cells, CellTiter-Glo; conditions: CellTiterGlo assay, 6 days
Description: as §7, with “T47D LnCap95” for “22RV1”, “T47D LnCap95 AR-FL KO” for “22RV1/AR”, “2500” for “5000”, “pen strep.” for “PenStrep.”
After treatment, plates were spun at 300×g for 30 seconds, then cultured at 37° C. with 5% CO2 for 6 days in a humidified tissue culture incubator. On Day 6 of treatment, cell viability was quantified with CellTiter-Glo 2.0 reagent (Promega). Plates were equilibrated to room temperature for 30 minutes, then 25 μL of CellTiter-Glo 2.0 reagent was added to cells, bringing the total volume in each well to 75 μL. After reagent was added, plates were spun at 300×g for 30 seconds then mixed on a shaker for two minutes at 500 rpm and then incubated in dark at room temperature for 10 minutes. Following incubation, plates were spun at 300×g for 30 seconds, sealed with an optical adhesive cover, and luminescence readings were measured with an EnVision Plate Reader. […]

Compound | GI50 [1] [nM] | also measured
Cc1sc2c(c1C)C(c1ccc(Cl)cc1)=N[C@@H](CC(=O)NCCOCCOCCOCCOCCN(C)c1ncc(C(=O)N[C@H]3C(C)(C)[C@H](Oc4ccc(C#N)c(Cl)c4)C3(C)C)cn1)c1nnc(C)n1-2 [Compound I-3, N-((1r,3r)-3-(3-chloro-4-cyanophenoxy)-2,2,4,4-tetramethylcyclobutyl)-2-((1-((S)-4-(4-chlorophenyl)-2,3,9-trimethyl-6H-thieno[3,2-f][1,2,4]triazolo[4,3-a][1,4]diazepin-6-yl)-2-oxo-6,9,12,15-tetraoxa-3-azaheptadecan-17-yl)(methyl)amino)pyrimidine-5-carboxamide] | < 500 | 
Cc1sc2c(c1C)C(c1ccc(Cl)cc1)=N[C@@H](CC(=O)NCCOCCOCCOCCOCCOCCOCCN(C)c1ncc(C(=O)N[C@H]3C(C)(C)[C@H](Oc4ccc(C#N)c(Cl)c4)C3(C)C)cn1)c1nnc(C)n1-2 [Compound I-4] | < 500 | 
Cc1sc2c(c1C)C(c1ccc(Cl)cc1)=N[C@@H](CC(=O)NCCOC1CCN(c3ncc(C(=O)N[C@H]4C(C)(C)[C@H](Oc5ccc(C#N)c(Cl)c5)C4(C)C)cn3)CC1)c1nnc(C)n1-2 [Compound I-6] | < 500 | 
Cc1sc2c(c1C)C(c1ccc(Cl)cc1)=N[C@@H](CC(=O)NCCOCCOCCOCCOCCOC1CCN(c3ncc(C(=O)N[C@H]4C(C)(C)[C@H](Oc5ccc(C#N)c(Cl)c5)C4(C)C)cn3)CC1)c1nnc(C)n1-2 [Compound I-8] | < 500 | 
Cc1sc2c(c1C)C(c1ccc(Cl)cc1)=N[C@@H](CC(=O)NCCOCCOCCOCCOC1CCN(c3ncc(C(=O)N[C@H]4C(C)(C)[C@H](Oc5ccc(C#N)c(Cl)c5)C4(C)C)cn3)CC1)c1nnc(C)n1-2 [Compound I-11] | < 500 | 
Cc1sc2c(c1C)C(c1ccc(Cl)cc1)=N[C@H](CC(=O)NCCOCCOCCOCCOC1CCN(c3ncc(C(=O)N[C@H]4C(C)(C)[C@H](Oc5ccc(C#N)c(Cl)c5)C4(C)C)cn3)CC1)c1nnc(C)n1-2 [Compound I-13] | < 500 | 
Cc1sc2c(c1C)C(c1ccc(Cl)cc1)=N[C@H](CC(=O)NCCOCCOCCOCCOCCOC1CCN(c3ncc(C(=O)N[C@H]4C(C)(C)[C@H](Oc5ccc(C#N)c(Cl)c5)C4(C)C)cn3)CC1)c1nnc(C)n1-2 [Compound I-14] | < 500 | 
Cc1sc2c(c1C)C(c1ccc(Cl)cc1)=N[C@@H](CC(=O)NCCOCCOCCOCC1CCN(c3ncc(C(=O)N[C@H]4C(C)(C)[C@H](Oc5ccc(C#N)c(Cl)c5)C4(C)C)cn3)CC1)c1nnc(C)n1-2 [Compound I-17] | 500 to 1500 | 
Cc1sc2c(c1C)C(c1ccc(Cl)cc1)=N[C@H](CC(=O)NCCOCCOCCOCCOCCN(C)c1ncc(C(=O)N[C@H]3C(C)(C)[C@H](Oc4ccc(C#N)c(Cl)c4)C3(C)C)cn1)c1nnc(C)n1-2 [Compound I-19] | 500 to 1500 | 
Cc1sc2c(c1C)C(c1ccc(Cl)cc1)=N[C@@H](CC(=O)NCCCCCOC1CCN(c3ncc(C(=O)N[C@H]4C(C)(C)[C@H](Oc5ccc(C#N)c(Cl)c5)C4(C)C)cn3)CC1)c1nnc(C)n1-2 [Compound I-22, N-((1r,3r)-3-(3-chloro-4-cyanophenoxy)-2,2,4,4-tetramethylcyclobutyl)-2-(4-((5-(2-((S)-4-(4-chlorophenyl)-2,3,9-trimethyl-6H-thieno[3,2-A][1,2,4]triazolo[4,3-a][1,4]diazepin-6-yl)acetamido)pentyl)oxy)piperidin-1-yl)pyrimidine-5-carboxamide] |  | GI50 [2]: > 3000 nM
Cc1sc2c(c1C)C(c1ccc(OC3CC4(CCN(c5ncc(C(=O)N[C@H]6C(C)(C)[C@H](Oc7ccc(C#N)c(Cl)c7)C6(C)C)cn5)CC4)C3)cc1)=N[C@@H](Cc1ncco1)c1nnc(C)n1-2 [Compound I-49, N-[3-(3-chloro-4-cyano-phenoxy)-2,2,4,4-tetramethyl-cyclobutyl]-2-[2-[4-[(9S)-4,5,13-trimethyl-9-(oxazol-2-ylmethyl)-3-thia-1,8,11,12-tetrazatricyclo[8.3.0.02,6]trideca-2(6),4,7,10,12-pentaen-7-yl]phenoxy]-7-azaspiro[3.5]nonan-7-yl]pyrimidine-5-carboxamide] | < 500 | apoptosis in 22RV1 FL-AR^hi cells as compared to parental 22RV1 FL-AR^low cells [3]: highly apoptotic; EC50 ([3]; Homo sapiens, 22RV1 cells overexpressing FL-AR (FL-AR^hi), 24 or 48 hours): 126 nM; activity in parental LnCaP95 cells compared to AR knockout cells ([4]; parental vs LnCaP95 AR-FL KO cells): enhanced activity in parental LnCaP95 cells; GI50 ([4]; LNCaP-95, 144 h, parental LnCaP95 cells): 37 nM
